The values below come from patent publication EP0942911B1, “BENZOPYRANOPYRROLE AND BENZOPYRANOPYRIDINE ALPHA-1 ADRENERGIC COMPOUNDS” (Abbott Laboratories, priority 1996, dated 1998).

In experiment [1] the test system is α-1A adrenoreceptor. In words: Functional antagonism: inhibition of PE-induced contraction of canine prostate strips (Schild plot). The class given is cell-based. To be noted: phenylephrine-induced contraction. The text has this:
Canine prostate strips were used in vitro as previously described (Hieble, J.P., Boyce, A.J. and Caine, M., Fed. Proc., 45: 2609-2614 (1986)), to determine antagonist potencies against phenylephrine-induced contractions.
Functional assays indicative of pharmacologically defined α-1 adrenoreceptors were used to further characterize compounds. Inhibition of phenylephrine (PE)-induced contraction of canine prostate smooth muscle can be correlated with α-1A adrenoreceptor activation. […] For each of these models, agonist dose response curves were repeated against increasing concentrations of test agent to derive a Schild plot [log ([…]) against log (molarity of test agent)] to determine the pA2.

Experiment [2] addresses T1, α-1A adrenoreceptor (rat submaxillary gland) (Rattus norvegicus, UniProt P43140).
T1 sequence (P43140 1-466): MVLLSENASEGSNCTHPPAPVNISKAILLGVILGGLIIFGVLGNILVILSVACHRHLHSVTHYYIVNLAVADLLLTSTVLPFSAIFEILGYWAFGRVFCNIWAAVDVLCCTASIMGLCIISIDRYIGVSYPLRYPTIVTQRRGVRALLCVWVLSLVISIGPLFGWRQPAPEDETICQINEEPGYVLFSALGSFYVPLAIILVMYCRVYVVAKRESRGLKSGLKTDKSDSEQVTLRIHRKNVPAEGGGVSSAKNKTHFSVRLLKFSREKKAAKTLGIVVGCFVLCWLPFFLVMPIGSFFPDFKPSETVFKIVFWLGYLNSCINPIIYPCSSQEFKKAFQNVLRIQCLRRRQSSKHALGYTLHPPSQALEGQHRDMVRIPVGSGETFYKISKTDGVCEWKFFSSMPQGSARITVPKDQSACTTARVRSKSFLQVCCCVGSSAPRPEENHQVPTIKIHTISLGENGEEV
The experiment in a line: biochemical. The format is binding. To be noted: read-out: Radioligand Binding (Ki, nM) 1A (Rat). In a few lines: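 Radioligand binding to α-1A sites in membrane homogenates of rat submaxillary gland, run after Greengrass and Bremner. Bound radioactivity counted by liquid scintillation.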

The next experiment concerns the target T2, α-1B adrenoreceptor (Rattus norvegicus, UniProt P15823).
T2 construct: from tissue; host or cells: rat spleen
T2 sequence (P15823 1-515): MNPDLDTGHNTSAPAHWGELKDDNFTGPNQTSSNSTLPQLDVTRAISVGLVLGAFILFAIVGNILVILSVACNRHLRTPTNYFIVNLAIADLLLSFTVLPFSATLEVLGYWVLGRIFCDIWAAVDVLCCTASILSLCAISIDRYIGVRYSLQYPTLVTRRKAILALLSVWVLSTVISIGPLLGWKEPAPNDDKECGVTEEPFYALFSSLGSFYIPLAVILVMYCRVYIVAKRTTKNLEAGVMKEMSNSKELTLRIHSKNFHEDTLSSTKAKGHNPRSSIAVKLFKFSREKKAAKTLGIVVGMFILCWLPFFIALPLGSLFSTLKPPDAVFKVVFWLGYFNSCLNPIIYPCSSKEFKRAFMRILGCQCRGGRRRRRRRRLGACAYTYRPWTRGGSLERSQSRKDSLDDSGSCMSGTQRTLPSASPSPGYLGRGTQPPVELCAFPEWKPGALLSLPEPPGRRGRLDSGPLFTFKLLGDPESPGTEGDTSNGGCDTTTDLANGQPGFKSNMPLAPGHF
In words: cell-based. To be noted: phenylephrine-induced contraction; Schild plot; read-out: In Vitro Characterization (pA2) Rat Spleen (converted). In a few lines: (§1)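 Phenylephrine dose-response curves for contraction were repeated against increasing test-agent concentrations. pA2 was derived by Schild plot [[…] vs log molarity of test agent].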

Experiment [3] concerns the target T3, α-1A adrenoreceptor (Rattus norvegicus, UniProt P43140).
T3 sequence (P43140 1-466): T1 sequence (P43140 1-466)
The experiment in a line: cell-based. The following applies: phenylephrine-induced contraction; Schild plot; read-out: In Vitro Characterization (pA2) Rat Vas (converted). In a few lines: as §1

[4] abbreviates: [3H]-prazosin radioligand, rat submaxillary gland membranes.

Molecules are shown by their SMILES. Structures can show the parent of a compound that is named as a salt. Where two headings read alike, the source gives them in different places.

A word on the Ki: it is a dissociation constant, usually derived from enzyme kinetics or from competition with a known ligand.

For the molecule `COc1ccc2c(c1)OC[C@H]1CN(CCCn3c(=O)[nH]c4c(sc5ccccc54)c3=O)C[C@@H]21.Cl` (racemic) [Example 64, 3-[3-((±)-cis-7-Methoxy-1,2,3,3a,4,9b-hexahydro-[1]-benzopyrano[3,4-c]pyrrol-2-yl)propyl]-[1]benzthieno[3,2-d]pyrimidine-2,4(1H,3H)-dione hydrochloride], in the experiment with α-1A adrenoreceptor [1], the “In Vitro Characterization (pA2) Dog Prostate” value (from here on “In Vitro Characterization”) worked out at 6.92. For the same molecule, the inhibitory constant (Ki) in experiment [2] was 4.2 nM.

As for `COc1cccc2c1[C@@H]1CN(CCn3c(=O)[nH]c4c(sc5ccccc54)c3=O)C[C@@H]1CO2.Cl` (racemic) [Example 65, 3-[2-((±)-cis-9-Methoxy-1,2,3,3a,4,9b-hexahydro-[1]-benzopyrano[3,4-c]pyrrol-2-yl)ethyl]-[1]benzthieno[3,2-d]pyrimidine-2,4(1H,3H)-dione hydrochloride], the “In Vitro Characterization” value with α-1A adrenoreceptor [1] came to 7.76. In experiment [2], the Ki came to 15 nM.

Take `COc1cccc2c1[C@@H]1CN(CCCn3c(=O)[nH]c4c(sc5ccccc54)c3=O)C[C@@H]1CO2.Cl` (racemic) [Example 66, 3-[3-((±)-cis-9-Methoxy-1,2,3,3a,4,9b-hexahydro-[1]-benzopyrano[3,4-c]pyrrol-2-yl)propyl]-[1]benzthieno[3,2-d]pyrimidine-2,4(1H,3H)-dione hydrochloride]: the “In Vitro Characterization” value in the experiment on α-1A adrenoreceptor [1] turned out to be 7.48. Also, in experiment [2], the inhibition constant (Ki) was 214 nM.

As to `COc1cccc2c1OC[C@H]1CN(CCn3c(=O)[nH]c4c(sc5ccccc54)c3=O)C[C@@H]21.Cl` (racemic) [Example 67, 3-[2-((±)-cis-6-Methoxy-1,2,3,3a,4,9b-hexahydro-[1]-benzopyrano[3,4-c]pyrrol-2-yl)ethyl]-[1]benzthieno[3,2-d]pyrimidine-2,4(1H,3H)-dione hydrochloride], in the experiment on α-1A adrenoreceptor [1], the “In Vitro Characterization” value worked out at 7.33. Moreover, the Kb at α-1B adrenoreceptor is 148 nM. The inhibition constant Ki in experiment [2] stood at 116 nM.

On to `COc1cccc2c1OC[C@H]1CN(CCCn3c(=O)[nH]c4c(sc5ccccc54)c3=O)C[C@@H]21.Cl` (racemic) [Example 68, 3-[3-((±)-cis-6-Methoxy-1,2,3,3a,4,9b-hexahydro-[1]-benzopyrano[3,4-c]pyrrol-2-yl)propyl]-[1]benzthieno[3,2-d]pyrimidine-2,4(1H,3H)-dione hydrochloride], for which the “In Vitro Characterization” value with α-1A adrenoreceptor [1] is on record as 7.02. In addition, the Ki in experiment [2] was determined as 40.6 nM.

Regarding `Cl.O=c1[nH]c2c(sc3ccccc32)c(=O)n1CCN1C[C@@H]2COc3ccccc3[C@@H]2C1` (racemic) [Example 69, 3-[2-((±)-cis-1,2,3,3a,4,9b-hexahydro-[1]-benzopyrano[3,4-c]pyrrol-2-yl)ethyl]-[1]benzthieno[3,2-d]pyrimidine-2,4(1H,3H)-dione hydrochloride], the “In Vitro Characterization” value with α-1A adrenoreceptor [1] came to 6.91. The Ki in experiment [2] is 0.665 nM.

Take `COc1cccc2c1[C@H]1CN(CCCCn3c(=O)[nH]c4c(sc5nccnc54)c3=O)C[C@@H]1CO2.Cl.Cl` (racemic) [Example 74, 3-[4-((±)-trans-9-Methoxy-1,2,3,3a,4,9b-hexahydro-[1]-benzopyrano[3,4-c]pyrrol-2-yl)butyl]-pyrazino[2',3':4,5]thieno[3,2-d]pyrimidine-2,4(1H,3H)-dione dihydrochloride]: the “In Vitro Characterization” value with α-1A adrenoreceptor [1] stood at 9.03. Moreover, the Kb on α-1A adrenoreceptor [3] was 0.794 nM; at α-1B adrenoreceptor, 6.46 nM. Also, in experiment [2], the inhibitory constant (Ki) stood at 3.29 nM.

Turning to `COc1cccc2c1[C@@H]1CCN(CCCCn3c(=O)[nH]c4c(sc5ncccc54)c3=O)C[C@H]1CO2` (racemic) [Example 85, 3-[4-((±)-trans-10-Methoxy-1,3,4,4a,5,10b-hexahydro-2H-[1]-benzopyrano[3,4-c]pyrido-3-yl)butyl]-pyrido[3',2':4,5]thieno[3,2-d]pyrimidine-2,4(1H,3H)-dione dihydrochloride], the “In Vitro Characterization” value in the experiment on α-1A adrenoreceptor [1] was found to be 8.6. The inhibition constant (Ki) in experiment [2] (setting [4]) came out at 0.419 nM.

`COc1cccc2c1[C@@H]1CN(CCCCn3c(=O)[nH]c4c(sc5cccnc54)c3=O)C[C@@H]1CO2` [Example 1, 3-[4-((3aR,9bR)-cis-9-Methoxy-1,2,3,3a,4,9b-hexahydro-[1]-benzopyrano[3,4-c]pyrrol-2-yl)butyl]-pyrido[2',3':4,5]thieno[3,2-d]pyrimidine-2,4(1H,3H)-dione hydrochloride]: in the experiment on α-1A adrenoreceptor [1], the “In Vitro Characterization” value is 8.69. The Ki in experiment [2] (setting [4]) turned out to be 0.045 nM.

Turning to `COc1cccc2c1[C@H]1CN(CCCCn3c(=O)[nH]c4c(sc5cccnc54)c3=O)C[C@H]1CO2` [Example 2, 3-[4-((3aS,9bS)-cis-9-Methoxy-1,2,3,3a,4,9b-hexahydro-[1]-benzopyrano[3,4-c]pyrrol-2-yl)butyl]-pyrido[2',3':4,5]thieno[3,2-d]pyrimidine-2,4(1H,3H)-dione hydrochloride], the “In Vitro Characterization” value in the experiment on α-1A adrenoreceptor [1] is given as 7.95. Further, in experiment [2] (setting [4]), the inhibitory constant (Ki) was 0.95 nM.

Regarding `COc1cccc2c1[C@@H]1CN(CCCCn3c(=O)[nH]c4c(sc5cccnc54)c3=O)C[C@H]1CO2` [Example 3, 3-[4-((3aS,9bR)-trans-9-Methoxy-1,2,3,3a,4,9b-hexahydro-[1]-benzopyrano[3,4-c]pyrrol-2-yl)butyl]-pyrido[2',3':4,5]thieno[3,2-d]pyrimidine-2,4(1H,3H)-dione hydrochloride], in the experiment with α-1A adrenoreceptor [1], the “In Vitro Characterization” value was determined as 9.43. Moreover, the Ki in experiment [2] (setting [4]) was determined as 0.026 nM.

Turning to `COc1cccc2c1[C@@H]1CN(CCCCn3c(=O)[nH]c4c(sc5ncc(Cl)nc54)c3=O)C[C@H]1CO2` [Example 13, 3-[4-((3aS,9bR)-trans-9-Methoxy-1,2,3,3a,4,9b-hexahydro-[1]-benzopyrano[3,4-c]pyrrol-2-yl)butyl]-8-chloro-pyrazino[2',3':4,5]thieno[3,2-d]pyrimidine-2,4(1H,3H)-dione hydrochloride], in the experiment on α-1A adrenoreceptor [1], the “In Vitro Characterization” value stood at 9.91. Further, the Kb was 0.158 nM at α-1A adrenoreceptor [3] and 4.07 nM at α-1B adrenoreceptor. For the same molecule, in experiment [2] (setting [4]), the inhibition constant Ki was 0.1 nM.

Consider `COc1ccc2sc3c(=O)n(CCCCN4C[C@H]5COc6cccc(OC)c6[C@@H]5C4)c(=O)[nH]c3c2n1` [Example 26, 3-[4-((3aS,9bR)-trans-9-Methoxy-1,2,3,3a,4,9b-hexahydro-[1]-benzopyrano[3,4-c]pyrrol-2-yl)butyl]-8-methoxy-pyrido[2',3':4,5]thieno[3,2-d]pyrimidine-2,4(1H,3H)-dione hydrochloride], for which, in the experiment on α-1A adrenoreceptor [1], the “In Vitro Characterization” value was determined as 9.15. In addition, the Kb at α-1A adrenoreceptor [3] is 0.0457 nM; on α-1B adrenoreceptor, 3.16 nM. In addition, the Ki in experiment [2] (setting [4]) was found to be 0.09 nM.

Take `COc1cccc2c1[C@@H]1CN(CCCCn3c(=O)[nH]c4c(sc5ncc(-c6ccccc6)nc54)c3=O)C[C@@H]1CO2` [Example 39, 3-[4-((3aR,9bR)-cis-9-Methoxy-1,2,3,3a,4,9b-hexahydro-[1]-benzopyrano[3,4-c]pyrrol-2-yl)butyl]-8-phenyl-pyrazino[2',3':4,5]thieno[3,2-d]pyrimidine-2,4(1H,3H)-dione hydrochloride]: the “In Vitro Characterization” value in the experiment with α-1A adrenoreceptor [1] was 8.52. For the same molecule, the Kb at α-1A adrenoreceptor [3] was 0.162 nM; at α-1B adrenoreceptor, 148 nM. The Ki in experiment [2] (setting [4]) turned out to be 0.343 nM.

`COc1cccc2c1[C@@H]1CCN(CCCCn3c(=O)[nH]c4c(sc5cccnc54)c3=O)C[C@H]1CO2` [Example 95, 3-[4-((4aS,10bR)-trans-10-Methoxy-1,3,4,4a,5,10b-hexahydro-2H-[1]-benzopyrano[3,4-c]pyrido-3-yl)butyl]-pyrido[2',3':4,5]thieno[3,2-d]pyrimidine-2.4(1H,3H)-dione dihydrochloride]: the “In Vitro Characterization” value in the experiment with α-1A adrenoreceptor [1] amounted to 8.58. The Kb on α-1B adrenoreceptor was 19.1 nM. Further, the Ki in experiment [2] (setting [4]) amounted to 8.83 nM.
